# Tested on: HEK293
# Assay: Induction of VHL-mediated SGK3 degradation in HEK293 cells at 10 uM incubated for 48 hrs by immunoblot analysis relative to control
# Assay type: cell-based
# Conditions: Homo sapiens
row,SMILES,Activity [%]
1,Cc1ccc(F)c(S(=O)(=O)Nc2ccc(-c3nc(OC[C@H]4CN(CCOCCOCC(=O)N[C@H](C(=O)N5C[C@H](O)C[C@H]5C(=O)NCc5ccc(-c6scnc6C)cc5)C(C)(C)C)CCO4)c4cn[nH]c4n3)cc2)c1,> 50
2,Cc1ccc(F)c(S(=O)(=O)Nc2ccc(-c3nc(OC[C@H]4CN(CCOCCOCCOCC(=O)N[C@H](C(=O)N5C[C@H](O)C[C@H]5C(=O)NCc5ccc(-c6scnc6C)cc5)C(C)(C)C)CCO4)c4cn[nH]c4n3)cc2)c1,> 50
3,COc1ccc(Cl)c(S(=O)(=O)Nc2ccc(-c3nc(OC[C@H]4CN(CCCCCCOCCCCCCOCC(=O)N[C@H](C(=O)N5C[C@H](O)C[C@H]5C(=O)NCc5ccc(-c6scnc6C)cc5)C(C)(C)C)CCO4)c4c(C)n[nH]c4n3)cc2)c1,> 50
4,Cc1ccc(F)c(S(=O)(=O)Nc2ccc(-c3nc(OC[C@H]4CN(CCCCCCOCCCCCCOCC(=O)N[C@H](C(=O)N5C[C@H](O)C[C@H]5C(=O)NCc5ccc(-c6scnc6C)cc5)C(C)(C)C)CCO4)c4cn[nH]c4n3)cc2)c1,> 50
5,Cc1ccc(F)c(S(=O)(=O)Nc2ccc(-c3nc(OC[C@H]4CN(CCCCCCOCCOCCOCC(=O)N[C@H](C(=O)N5C[C@H](O)C[C@H]5C(=O)NCc5ccc(-c6scnc6C)cc5)C(C)(C)C)CCO4)c4cn[nH]c4n3)cc2)c1,> 50
6,COc1ccc(Cl)c(S(=O)(=O)Nc2ccc(-c3nc(OC[C@H]4CN(CCCCCCOCCOCCOCCOCC(=O)N[C@H](C(=O)N5C[C@H](O)C[C@H]5C(=O)NCc5ccc(-c6scnc6C)cc5)C(C)(C)C)CCO4)c4c(C)n[nH]c4n3)cc2)c1,> 50
7,Cc1ccc(F)c(S(=O)(=O)Nc2ccc(-c3nc(OC[C@H]4CN(CCOCCOCCOCCOCC(=O)N[C@H](C(=O)N5C[C@H](O)C[C@H]5C(=O)NCc5ccc(-c6scnc6C)cc5)C(C)(C)C)CCO4)c4cn[nH]c4n3)cc2)c1,> 50
8,Cc1ccc(F)c(S(=O)(=O)Nc2ccc(-c3nc(OC[C@H]4CN(CCCCCCOCCOCCOCCOCC(=O)N[C@H](C(=O)N5C[C@H](O)C[C@H]5C(=O)NCc5ccc(-c6scnc6C)cc5)C(C)(C)C)CCO4)c4cn[nH]c4n3)cc2)c1,> 50
9,Cc1ccc(F)c(S(=O)(=O)Nc2ccc(-c3nc(OC[C@H]4CN(CCOCCOCCOCCOCCOCC(=O)N[C@H](C(=O)N5C[C@H](O)C[C@H]5C(=O)NCc5ccc(-c6scnc6C)cc5)C(C)(C)C)CCO4)c4cn[nH]c4n3)cc2)c1,> 50

# Target: Protein cereblon/Tyrosine-protein kinase ABL1/Breakpoint cluster region protein (Homo sapiens) (UniProt P00519+P11274+Q96SW2)
# Sequence (P00519 whole entry, looked up): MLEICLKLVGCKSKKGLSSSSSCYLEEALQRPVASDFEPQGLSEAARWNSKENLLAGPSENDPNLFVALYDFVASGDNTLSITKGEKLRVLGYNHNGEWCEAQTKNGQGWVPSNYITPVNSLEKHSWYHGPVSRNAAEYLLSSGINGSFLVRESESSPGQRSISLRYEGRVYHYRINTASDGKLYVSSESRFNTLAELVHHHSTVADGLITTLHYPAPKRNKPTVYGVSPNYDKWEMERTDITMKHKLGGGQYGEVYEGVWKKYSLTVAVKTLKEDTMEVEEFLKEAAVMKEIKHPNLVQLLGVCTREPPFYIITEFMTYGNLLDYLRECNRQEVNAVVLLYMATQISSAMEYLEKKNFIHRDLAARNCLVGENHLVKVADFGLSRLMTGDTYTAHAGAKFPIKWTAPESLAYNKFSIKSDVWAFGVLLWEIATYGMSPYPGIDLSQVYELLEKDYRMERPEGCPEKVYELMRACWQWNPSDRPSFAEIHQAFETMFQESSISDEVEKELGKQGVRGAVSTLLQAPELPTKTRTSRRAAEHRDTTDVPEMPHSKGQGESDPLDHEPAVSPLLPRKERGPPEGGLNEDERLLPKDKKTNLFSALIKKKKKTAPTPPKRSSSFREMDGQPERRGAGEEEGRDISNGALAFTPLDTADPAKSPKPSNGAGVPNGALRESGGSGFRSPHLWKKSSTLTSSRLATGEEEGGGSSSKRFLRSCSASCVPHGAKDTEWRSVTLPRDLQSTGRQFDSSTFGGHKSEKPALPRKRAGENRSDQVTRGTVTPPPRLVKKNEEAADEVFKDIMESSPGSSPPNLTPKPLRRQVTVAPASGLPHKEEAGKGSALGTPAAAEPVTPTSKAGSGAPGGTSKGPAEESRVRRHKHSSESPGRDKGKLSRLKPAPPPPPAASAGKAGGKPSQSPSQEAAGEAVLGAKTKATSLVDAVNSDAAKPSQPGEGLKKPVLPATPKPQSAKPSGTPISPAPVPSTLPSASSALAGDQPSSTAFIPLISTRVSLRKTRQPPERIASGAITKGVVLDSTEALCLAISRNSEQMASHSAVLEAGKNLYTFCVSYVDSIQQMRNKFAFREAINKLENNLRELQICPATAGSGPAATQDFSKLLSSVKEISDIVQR
# Sequence (P11274 whole entry, looked up): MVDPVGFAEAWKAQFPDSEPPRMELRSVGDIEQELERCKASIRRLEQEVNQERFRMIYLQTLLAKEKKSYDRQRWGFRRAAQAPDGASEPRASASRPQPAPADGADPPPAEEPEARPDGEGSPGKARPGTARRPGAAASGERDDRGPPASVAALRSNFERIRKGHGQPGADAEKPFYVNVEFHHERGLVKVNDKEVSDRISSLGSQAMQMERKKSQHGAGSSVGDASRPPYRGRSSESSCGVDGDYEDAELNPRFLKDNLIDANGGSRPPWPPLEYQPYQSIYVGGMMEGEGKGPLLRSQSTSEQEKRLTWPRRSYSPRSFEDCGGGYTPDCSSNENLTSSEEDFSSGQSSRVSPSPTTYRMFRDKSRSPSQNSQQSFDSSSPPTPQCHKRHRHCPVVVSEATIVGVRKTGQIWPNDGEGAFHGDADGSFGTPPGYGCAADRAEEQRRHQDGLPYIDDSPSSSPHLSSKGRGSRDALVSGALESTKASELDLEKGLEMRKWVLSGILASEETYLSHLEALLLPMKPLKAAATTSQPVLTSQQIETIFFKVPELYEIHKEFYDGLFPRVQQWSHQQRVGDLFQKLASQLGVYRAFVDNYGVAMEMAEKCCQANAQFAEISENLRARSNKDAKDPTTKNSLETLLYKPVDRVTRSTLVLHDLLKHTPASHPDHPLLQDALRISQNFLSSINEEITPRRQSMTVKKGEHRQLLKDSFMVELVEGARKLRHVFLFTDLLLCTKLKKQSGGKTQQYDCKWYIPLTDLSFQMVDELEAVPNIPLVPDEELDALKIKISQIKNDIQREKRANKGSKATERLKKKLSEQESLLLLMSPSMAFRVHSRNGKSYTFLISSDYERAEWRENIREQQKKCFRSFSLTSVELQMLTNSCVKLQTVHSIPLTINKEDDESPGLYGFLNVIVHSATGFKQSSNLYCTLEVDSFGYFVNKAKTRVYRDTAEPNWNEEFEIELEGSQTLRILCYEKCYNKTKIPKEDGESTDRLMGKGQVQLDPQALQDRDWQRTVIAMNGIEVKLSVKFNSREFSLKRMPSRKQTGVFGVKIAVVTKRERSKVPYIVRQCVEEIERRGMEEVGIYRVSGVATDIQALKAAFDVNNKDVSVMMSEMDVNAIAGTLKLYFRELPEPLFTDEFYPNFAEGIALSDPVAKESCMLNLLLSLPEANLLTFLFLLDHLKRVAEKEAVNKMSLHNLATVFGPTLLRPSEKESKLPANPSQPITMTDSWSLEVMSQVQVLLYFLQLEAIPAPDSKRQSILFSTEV
# Sequence (Q96SW2 whole entry, looked up): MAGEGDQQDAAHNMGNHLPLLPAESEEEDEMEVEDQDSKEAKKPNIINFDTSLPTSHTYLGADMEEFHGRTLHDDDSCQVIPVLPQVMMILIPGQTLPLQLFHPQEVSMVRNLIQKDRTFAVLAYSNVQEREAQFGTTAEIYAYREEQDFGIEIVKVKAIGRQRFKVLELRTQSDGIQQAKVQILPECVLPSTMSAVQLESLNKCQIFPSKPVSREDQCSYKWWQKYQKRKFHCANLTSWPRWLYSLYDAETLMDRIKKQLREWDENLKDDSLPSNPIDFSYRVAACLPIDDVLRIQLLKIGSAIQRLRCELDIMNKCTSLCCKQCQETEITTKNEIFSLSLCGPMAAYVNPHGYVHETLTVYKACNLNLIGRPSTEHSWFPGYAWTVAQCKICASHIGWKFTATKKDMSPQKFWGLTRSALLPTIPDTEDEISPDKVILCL
# Assay: Induction of CRBN-mediated BCR-ABL degradation in human K562 cells at 1 uM incubated for 24 hrs by Western blot analysis relative to control
# Assay type: cell-based
# Conditions: not given
row,Activity [%],SMILES
1,> 60,Cc1nc(Nc2ncc(C(=O)Nc3c(C)cccc3Cl)s2)cc(N2CCN(CCCCCCOCCOCCOCCCCCC(=O)Nc3cccc4c3C(=O)N(C3CCC(=O)NC3=O)C4=O)CC2)n1 (stereo not given)

# Reference: ChEMBL document CHEMBL4765444, “Chimera induced protein degradation: PROTACs and beyond” (Eur J Med Chem, 2020)
